Measurements reported in patent publication US20180312473A1, “PHENAZINE DERIVATIVES AS ANTIMICROBIAL AGENTS” (priority 2015, published 2018).
Values after ≈ are worked out from the molar mass of the structure shown. Where two headings read alike, the source gives them in different places. Marks after values point to notes of the source that are not given here.

What was measured:
[1] = system: MRSA-1 (methicillin-resistant Staphylococcus aureus clinical isolate); assay: MIC assay (broth microdilution, CLSI); format: cell-based; details: Staphylococcus aureus, MRSA, Table 2A; read-out: MIC, MRSA-1
MRSA BAA-44 = assay: MIC assay (broth microdilution, CLSI); details: Staphylococcus aureus, read-out: MIC, MRSA BAA-44
human red blood cells = assay: Hemolysis assay with red blood cells; details: human, 1 h, 200 μM, pH 7.2
Method: The hemolysis activities of select compounds of the invention were determined. […] The washing was repeated three times with the buffer. In 96-well plate, test compounds were added to the buffer from DMSO stocks. […] The plate was then incubated for 1 hour at 37° C. After incubation, the plate was centrifuged for 5 minutes at 3,500 rpm. Then 80 μL of the supernatant was transferred to another 96-well plate, and the optical density (OD) was read at 405 nm. DMSO served as the negative control (0% hemolysis), while Triton X served as the positive control (100% hemolysis). The percent of hemolysis was calculated as (OD405 of the compound−OD405 of DMSO)/(OD405 of Triton X−OD405 of the buffer).
The washing was repeated three times with the buffer. In 96-well plate, test compounds were added to the buffer from DMSO stocks. […] The plate was then incubated for 1 hour at 37° C. After incubation, the plate was centrifuged for 5 minutes at 3,500 rpm. Then 80 μL of the supernatant was transferred to another 96-well plate and the optical density (OD) was read at 405 nm. DMSO served as our negative control (0% hemolysis) while Triton X served as our positive control (100% hemolysis). The percent of hemolysis was calculated as (OD405 of the test compound−OD405 DMSO)/(OD405 Triton X−OD405 buffer) from three independent experiments.

[2] = system: Staphylococcus epidermidis (ATCC 35984), MRSE; assay: MIC assay (broth microdilution, CLSI); format: cell-based; details: for MIC: Staphylococcus epidermidis
[3] = system: MRSA-2 (methicillin-resistant Staphylococcus aureus clinical isolate); assay: MIC assay (broth microdilution, CLSI); format: cell-based; details: Staphylococcus aureus, MRSA, read-out: MIC, MRSA-2
[4] = system: MRSE (S. epidermidis ATCC 35984) planktonic cells and biofilms; assay: Calgary Biofilm Device (CBD) assay, MBC/MBEC; format: cell-based, Staphylococcus epidermidis; details: for MBC: Staphylococcus epidermidis
[5] = system: Staphylococcus epidermidis (ATCC 12228); assay: MIC assay (broth microdilution, CLSI); format: cell-based; details: Staphylococcus epidermidis, ATCC12228
[6] = system: Enterococcus faecium (ATCC 700221), VRE; assay: MIC assay (broth microdilution, CLSI); format: cell-based
MRSA-2 = assay: MIC assay with Tiron or metal(II) cation co-treatment; format: cell-based, Staphylococcus aureus; details: Staphylococcus aureus
in vitro = format: cell-based; details: human
Method: (§1) The cytotoxicities of select compounds of the invention against HeLa cells were determined. HeLa cytotoxicity was assessed using the LDH release assay described by CYTOTOX96 (Promega G1780). HeLa cells were grown in Dulbecco's Modified Eagle Medium (DMEM; Gibco) supplemented with 10% Fetal Bovine Serum (FBS) at 37° C. with 5% CO2. […] Triton X-100 (at 2% v/v) was used as the positive control for maximum lactate dehydrogenate (LDH) activity in this assay (e.g., complete cell death), while “medium only” lanes served as negative control lanes (e.g., no cell death). DMSO was used as the vehicle control. […] Finally, Stop Solution (50 μL) was added to the incubating plates, and the absorbance was measured at 490 nm.
(§2) HeLa cytotoxicity was assessed using the LDH release assay described by CYTOTOX96 (Promega G1780). HeLa cells were grown in Dulbecco's Modified Eagle Medium (DMEM; Gibco) supplemented with 10% Fetal Bovine Serum (FBS) at 37° C. with 5% CO2. […] Triton X-100 (at 2% v/v) was used as the positive control for maximum lactate dehydrogenate (LDH) activity in this assay (e.g., complete cell death), while “medium only” lanes served as negative control lanes (e.g., no cell death). DMSO was used as our vehicle control. […] Finally, Stop Solution (50 μL) was added to the incubating plates and the absorbance was measured at 490 nm. Results are from three independent experiments (FIG. 19)

HeLa cells = assay: in vitro; format: cell-based; details: human, 24 h
Method: as §1, §2

S. epidermidis 12228 = assay: MIC assay with Tiron or metal(II) cation co-treatment; format: cell-based, Staphylococcus epidermidis; details: Staphylococcus epidermidis
E. faecium 700221 (VRE) = assay: as above; format: cell-based, Enterococcus faecium; details: Enterococcus faecium, VRE
[7] = system: MRSA-2 planktonic cells and biofilms; assay: Calgary Biofilm Device (CBD) assay, MBC/MBEC; format: cell-based, Staphylococcus aureus; details: Staphylococcus aureus, MRSA
E. coli UAEC-1 = assay: MIC assay (broth microdilution, CLSI); format: cell-based; details: Escherichia coli, UAEC1; read-out: E. coli UAEC-1 MIC
K. pneumoniae 13883 = assay: MIC assay (broth microdilution, CLSI); format: cell-based, Klebsiella pneumoniae; details: Klebsiella pneumoniae, 13883; read-out: K. pneumoniae 13883 MIC
A. baumannii 19606 = assay: MIC assay (broth microdilution, CLSI); format: cell-based, Acinetobacter baumannii; details: Acinetobacter baumannii, 19606; read-out: A. baumannii 19606 MIC
P. aeruginosa (PAO1) = assay: MIC assay (broth microdilution, CLSI); format: cell-based; details: Pseudomonas aeruginosa, PAO1; read-out: PAO1 MIC
MRSA BAA-1707 = assay: MIC assay (broth microdilution, CLSI); details: Staphylococcus aureus, read-out: MIC, MRSA BAA-1707
[8] = Table 2A, read-out: MIC, Staphylococcus epidermidis (ATCC 35984)
[9] = Table 7, read-out: MIC, MRSE 35984
[10] = Table 7, a midpoint of 2-fold range, b lowest concentration tested
[11] = Table 2A, read-out: MIC, Staphylococcus epidermidis (ATCC 12228)
[12] = Table 7, b lowest concentration tested, read-out: MIC, S. epidermidis 12228
[13] = Enterococcus faecium, Table 2A, read-out: MIC, Enterococcus faecium (ATCC 700221)
[14] = Table 7, b lowest concentration tested, read-out: MIC, VRE 700221
[15] = Table 8, a/b 2-/4-fold range in independent experiments, read-out: MRSA-2 MBC

Row | Structure (SMILES) | melting point [°C] | MIC (MRSA BAA-44) [µM] | % Hemolysis (200 μM) (human red blood cells) [%] | % Hemolysis at 200 μM (human red blood cells) [%] | MIC [2, 8] [µM] | MIC [2, 9] [µM] | MIC ([3]; Table 2A) [µM] | MIC [3, 10] [µM] | MIC [5, 11] [µM] | MIC [5, 12] [µM] | MIC [6, 13] [µM] | MIC [6, 14] [µM] | IC50 at 24 h (in vitro) [µM] | MBC ([7]; Table 4, read-out: MBC, MRSA-2) [µM] | MBC [7, 15] [µM] | MIC (E. coli UAEC-1) [µM] | MIC (K. pneumoniae 13883) [µM] | MIC (A. baumannii 19606) [µM] | MIC (P. aeruginosa (PAO1)) [µM] | other results
1 | Oc1c(Cl)cc(Br)c2nc3cc(Br)c(Br)cc3nc12 [Compound 15, 4,7,8-Tribromo-2-chloro-1-hydroxyphenazine] | 242 to 244 | 25 (≈ 11.7 µg/mL) | 2.1 | 2.1 | 0.2 to 0.39 (≈ 0.0935 to 0.182 µg/mL) | 0.3 to 0.59 (≈ 0.14 to 0.276 µg/mL) | 12.5 (≈ 5.84 µg/mL) | 12.5 (≈ 5.84 µg/mL) | 0.05 to 0.1 (≈ 0.0234 to 0.0467 µg/mL) | 0.08 (≈ 0.0374 µg/mL) | 0.39 (≈ 0.182 µg/mL) | 0.39 (≈ 0.182 µg/mL) | > 100 | 25 (≈ 11.7 µg/mL) | 25 (≈ 11.7 µg/mL) | – | – | – | – | MIC [1]: 6.25 µM (≈ 2.92 µg/mL); MIC, MRSE 35984 ([2]; Table 7): 0.30^a μM; MBC ([4]; Table 4, read-out: MBC, Staphylococcus epidermidis (ATCC 35984)): 1.56 µM (≈ 0.729 µg/mL); MBC ([4]; Table 8, read-out: MRSE 35984 MBC): 1.56 µM (≈ 0.729 µg/mL); MBEC, Staphylococcus epidermidis (ATCC 35984) ([4]; Table 4): 3.13 µM; MIC (MRSA-2; MRSA-2, 200 μM copper(II), read-out: MIC with Cu^2+): > 100 µM; MIC (MRSA-2; MRSA-2, 1 mM Tiron, read-out: MIC with Tiron): 0.2 µM; MIC (MRSA-2; MRSA-2, no additive (Table 9), read-out: MIC): 3.13 µM; IC50 (HeLa cells): > 100 µM; MIC (S. epidermidis 12228; S. epidermidis 12228, 200 μM CuSO4, read-out: MIC with Cu^2+): 50 µM; MIC (S. epidermidis 12228; S. epidermidis 12228, 1 mM Tiron, read-out: MIC with Tiron): 0.1 µM; MIC (S. epidermidis 12228; S. epidermidis 12228, no additive, read-out: MIC): 0.1 µM; MIC (E. faecium 700221 (VRE); E. faecium 700221, 200 μM CuSO4, read-out: MIC with Cu^2+): 12.5 µM; MIC (E. faecium 700221 (VRE); E. faecium 700221, 1 mM Tiron, read-out: MIC with Tiron): 0.78 µM; MIC (E. faecium 700221 (VRE); E. faecium 700221, no additive, read-out: MIC): 0.78 µM
2 | COc1cccc2nc3cc(Cl)c(Cl)cc3nc12 [Compound 20, 7,8-Dichloro-1-methoxyphenazine] | – | – | 1.5 | – | > 100 | > 100 | > 100 | > 100 | > 100 | > 100 | > 100 | > 100 | – | – | – | > 100 | > 100 | > 100 | > 100 | –
3 | Oc1cccc2nc3cc(Cl)c(Cl)cc3nc12 [Compound 21] | – | – | ≤1 | – | > 100 | > 100 | > 100 | > 100 | > 100 | > 100 | > 100 | > 100 | – | – | – | > 100 | > 100 | > 100 | > 100 | –
4 | C=CCc1cc(Br)c2nc3cc(Br)c(Br)cc3nc2c1O [Compound 24, 2-Allyl-4,7,8-tribromo-1-hydroxyphenazine] | 187 to 189 | – | – | – | – | – | – | > 100 | – | > 100 | – | > 100 | – | – | – | – | – | – | – | –
5 | Oc1c(Br)cc(Br)c2nccnc12 [Compound 25] | – | 12.5 (≈ 3.8 µg/mL) | 1.8 | 1.8 | 12.5 to 25 (≈ 3.8 to 7.6 µg/mL) | 18.8 (≈ 5.71 µg/mL) | 25 (≈ 7.6 µg/mL) | 25 (≈ 7.6 µg/mL) | 12.5 to 25 (≈ 3.8 to 7.6 µg/mL) | 18.8 (≈ 5.71 µg/mL) | 100 (≈ 30.4 µg/mL) | 100 (≈ 30.4 µg/mL) | > 100 | 1500 (≈ 456 µg/mL) | 1500 (≈ 456 µg/mL) | 12.5 (≈ 3.8 µg/mL) | – | 6.25 (≈ 1.9 µg/mL) | > 100 | MIC (MRSA BAA-1707): 6.25 µM (≈ 1.9 µg/mL)
